# pIC50: −log10 of the molar value.
# Target: T1, Sentrin-specific protease 1 (Homo sapiens, UniProt Q9P0U3)
# T1 sequence (Q9P0U3 whole entry): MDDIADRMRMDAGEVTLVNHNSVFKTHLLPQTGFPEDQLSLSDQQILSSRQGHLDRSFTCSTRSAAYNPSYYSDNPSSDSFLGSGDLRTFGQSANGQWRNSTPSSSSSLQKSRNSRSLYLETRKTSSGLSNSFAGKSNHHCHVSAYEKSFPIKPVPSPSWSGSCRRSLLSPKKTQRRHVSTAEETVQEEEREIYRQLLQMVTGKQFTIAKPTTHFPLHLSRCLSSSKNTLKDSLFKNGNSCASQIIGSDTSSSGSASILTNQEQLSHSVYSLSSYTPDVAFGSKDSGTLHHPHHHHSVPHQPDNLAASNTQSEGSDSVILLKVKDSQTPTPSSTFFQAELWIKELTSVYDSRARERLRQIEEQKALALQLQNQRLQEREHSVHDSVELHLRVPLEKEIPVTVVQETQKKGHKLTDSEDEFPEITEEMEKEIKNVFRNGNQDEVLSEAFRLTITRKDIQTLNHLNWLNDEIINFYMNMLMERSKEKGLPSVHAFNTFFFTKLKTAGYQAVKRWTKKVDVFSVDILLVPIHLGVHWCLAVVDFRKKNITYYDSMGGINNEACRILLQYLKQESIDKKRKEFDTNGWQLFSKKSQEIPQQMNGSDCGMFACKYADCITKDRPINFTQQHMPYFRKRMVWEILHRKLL
row,SMILES,pIC50
1,"O=C1CC(=Nc2ccc(Cl)cc2)C(=O)N1c1ccc(Cl)cc1 [1-(4-chlorophenyl)-3-[(4-chlorophenyl)amino]pyrrole-2,5-dione]",4.90
2,COc1ccc(C=Nn2c(O)csc2=S)cc1Br [3-[(E)-(3-bromo-4-methoxyphenyl)methylideneamino]-2-sulfanylidene-4-thiazolidinone],5.01
3,O=C1CCCC2=Nc3cc(Cl)ccc3SC12 (stereo not drawn) [MLS000333002],4.77
4,COc1nccnc1NS(=O)(=O)c1ccc(NC(=S)NC(=O)c2ccc(F)cc2)cc1 [4-[3-(4-Fluoro-benzoyl)-thioureido]-N-(3-methoxy-pyrazin-2-yl)-benzenesulfonamide],4.81
5,COc1ccc(-n2c(O)c3c(c2O)C(C(=O)c2ccc(Cl)cc2)N2CCCC32)cc1 (stereo not drawn),5.36
6,"COc1ccc(P2(=O)Nc3ccccc3N2)cc1 [2-(4-methoxyphenyl)-1,3-dihydro-1,3,2-benzodiazaphosphole 2-oxide]",< 4.10
7,CCOc1cc(C=c2[nH]c3n(c2=O)CCCCC=3)ccc1O [MLS000774439],5.12
8,"CCN1C(=O)c2cccc3c(NC(=O)c4cccc(-n5c(O)ccc5O)c4)ccc1c23 [3-(2,5-dioxopyrrolidin-1-yl)-N-(1-ethyl-2-oxobenzo[cd]indol-6-yl)benzamide]",4.95
9,CCOC1=CC(=Cc2sc(=O)[nH]c2N)C=CC1=O,4.74
10,"CC(=O)Oc1ccc(-n2c(O)c3c(c2O)C(C(=O)c2ccc(Cl)cc2)N2CCCC32)cc1 (stereo not drawn) [Acetic acid 4-[4-(4-chloro-benzoyl)-1,3-dioxo-octahydro-pyrrolo[3,4-a]pyrrolizin-2-yl]-phenyl ester]",5.33
11,CC1=C(C#N)C(=O)NC(=O)C1=NNc1ccc(Br)cc1C(=O)O [MLS001213177],4.97
12,"CC1(C)CC(=O)C2Sc3ccccc3N=C2C1 (stereo not drawn) [2,2-Dimethyl-2,3-dihydro-1H,10H-phenothiazin-4-one]",4.37
13,O=NC1c2cc([N+](=O)[O-])ccc2-c2cc(Cl)c(NC(=O)C(F)(F)F)cc21 (stereo not drawn) [MLS002707326],5.54

# The remaining lines, values ahead:
row,pIC50,SMILES
1,5.06,"O=C(Cc1cccc2ccccc12)NC(NC(=S)Nc1ccccc1Cl)C(Cl)(Cl)Cl (stereo not drawn) [2-(1-naphthyl)-N-[2,2,2-trichloro-1-({[(2-chlorophenyl)amino]carbonothioyl}amino)ethyl]acetamide]"
2,5.11,O=C(c1ccccc1)[C@@H]1c2c(c(O)n(-c3ccc(F)cc3)c2O)C2CCCN21 (stereo partly drawn) [MLS000769629]
3,4.52,N#CC1C(=N)Oc2cc(Nc3ccccc3)ccc2C1c1ccncc1 (stereo not drawn) [2-amino-7-anilino-4-pyridin-4-yl-4H-1-benzopyran-3-carbonitrile]
4,4.96,COc1ccc(-n2c(O)c3c(c2O)C(C(=O)c2ccccc2)N2CCCC32)cc1 (stereo not drawn) [MLS000762485]
5,5.51,Nc1ccc2c(c1)C(N=O)c1cc([N+](=O)[O-])ccc1-2 (stereo not drawn) [N-(2-azanyl-7-nitro-fluoren-9-ylidene)hydroxylamine]
6,5.07,O=C1CC(=O)c2cccc3cccc1c23 [3-hydroxy-1H-phenalen-1-one]
7,4.88,CN(C)c1ccc(C=NNC(=O)C(=O)CC2=NC3(CCCC3)Cc3ccccc32)cc1 [MLS000589038]
8,5.05,O=C(O)c1ccc(N=NCc2cccc3nccnc23)cc1 [4-[(2E)-2-(5-quinoxalinylmethylidene)hydrazinyl]benzoic acid]
9,5.14,O=[N+]([O-])c1ccc(C/N=N/c2ccccc2)cc1
10,5.10,"Oc1c2c(c(O)n1-c1ccccn1)C(c1ccccc1)C=CC2c1ccccc1 (stereo not drawn) [4,7-diphenyl-2-pyridin-2-yl-3a,4,7,7a-tetrahydroisoindole-1,3-dione]"

# From BindingDB's records for doi:10.7270/Q2R49PCF (Burnham Center For Chemical Genomics, 2012)
